Read-outs that look alike come from different tables or passages of the source.

A word on the IC50: it is the concentration at which inhibition is half-maximal.

The target in assay [1] is T1, human CB2 receptor (Homo sapiens, UniProt P34972).
T1 construct: host or cells: CHO-K1 (Chinese hamster ovary) cells, stably transfected; membranes prepared in house
The assay can be described thus: CB2 radioligand ([3H]CP 55,940) competitive binding assay. As to conditions: for Selectivity CB2: fold difference in binding affinity, CB2 over CB1, 1.00 = about the same affinity for both receptors.

Assay [2] has as its target T2, human CB1 receptor (Homo sapiens, UniProt P21554).
T2 construct: host or cells: CHO-K1 (Chinese hamster ovary) cells, stably transfected; membranes prepared in house
The assay can be described thus: CB1 radioligand ([3H]CP 55,940) competitive binding assay. The note with it: for Selectivity CB1: fold difference in binding affinity, CB1 over CB2, 1.00 = about the same affinity for both receptors.

The mark [3] stands for this setting: [3H]CP 55,940 displacement, membranes of CHO-K1 cells expressing human CB2 receptor, read-out: CB2 IC50.
Where [4] appears, read: [3H]CP 55,940 displacement, membranes of CHO-K1 cells expressing human CB1 receptor, read-out: CB1 IC50.

T1 sequence (P34972 whole entry): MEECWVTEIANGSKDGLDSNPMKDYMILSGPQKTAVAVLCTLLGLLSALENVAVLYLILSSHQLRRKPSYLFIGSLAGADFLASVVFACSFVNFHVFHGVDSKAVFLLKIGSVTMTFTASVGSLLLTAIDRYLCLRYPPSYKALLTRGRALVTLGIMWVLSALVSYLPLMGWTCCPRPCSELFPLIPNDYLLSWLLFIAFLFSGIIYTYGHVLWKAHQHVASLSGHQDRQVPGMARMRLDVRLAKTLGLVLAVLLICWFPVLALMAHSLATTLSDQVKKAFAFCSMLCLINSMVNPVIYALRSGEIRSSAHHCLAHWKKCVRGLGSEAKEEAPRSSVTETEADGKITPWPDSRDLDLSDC
T2 sequence (P21554 whole entry): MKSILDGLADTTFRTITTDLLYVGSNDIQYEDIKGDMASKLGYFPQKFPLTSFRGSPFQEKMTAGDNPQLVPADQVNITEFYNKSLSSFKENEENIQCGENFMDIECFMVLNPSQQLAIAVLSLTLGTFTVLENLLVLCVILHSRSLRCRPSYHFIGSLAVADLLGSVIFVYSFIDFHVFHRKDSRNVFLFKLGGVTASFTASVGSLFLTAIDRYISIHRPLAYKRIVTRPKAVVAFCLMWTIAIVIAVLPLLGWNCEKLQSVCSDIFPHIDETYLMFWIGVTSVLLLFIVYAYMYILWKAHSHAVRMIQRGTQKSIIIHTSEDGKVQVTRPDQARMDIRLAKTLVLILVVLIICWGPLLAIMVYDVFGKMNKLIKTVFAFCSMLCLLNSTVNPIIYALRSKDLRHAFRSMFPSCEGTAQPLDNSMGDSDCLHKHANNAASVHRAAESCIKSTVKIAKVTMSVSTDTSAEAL

Regarding `CCCCCc1cc(O)c(C2C=C(C)CCC2)c2c1C(=O)OCO2` (centres unmarked) [Compound 1c, 7-hydroxy-8-(3-methylcyclohex-2-en-1-yl)-5-pentyl-4H-benzo[d][1,3]dioxin-4-one], the IC50 in assay [1] (setting [3]) fell in the range of 1 to 9.9 µM.
In the case of `C=C(C)[C@@H]1CCC(C)=C[C@H]1c1c(O)cc(CCCCC)c2c1OCOC2=O` [Compound 1d, 7-hydroxy-8-(3-methyl-6-(prop-1-en-2-yl)cyclohex-2-en-1-yl)-5-pentyl-4H-benzo[d][1,3]dioxin-4-one], the IC50 in assay [2] (setting [4]) and in assay [1] (setting [3]) was 1 to 9.9 µM in each case. Also, in assay [2], the “Selectivity CB1” value is on record as 1.00 fold. Also, the “Selectivity CB2” value in assay [1] was found to be 1.00 fold.
With `CCCCCc1cc(O)c(-c2cccc(C)c2)c2c1C(=O)OC(C)(C)O2` [Compound 2a, 7-hydroxy-2,2-dimethyl-8-(m-tolyl)-5-pentyl-1,3-benzodioxin-4-one], the IC50 in assay [2] (setting [4]) lay within 10 to 19.9 µM; in assay [1] (setting [3]), 1 to 9.9 µM. Also, the “Selectivity CB2” value in assay [1] is 3.08 fold.
On to `CCCCCc1cc(O)c(C2C=C(C)CCC2)c2c1C(=O)OC(C)(C)O2` (centres unmarked) [Compound 2c, 7-hydroxy-2,2-dimethyl-8-(3-methylcyclohex-2-en-1-yl)-5-pentyl-4H-benzo[d][1,3]dioxin-4-one], for which the half-maximal inhibitory concentration (IC50) lay within 1 to 9.9 µM in assay [2] and 10 to 19.9 µM in assay [1]. For the same compound, in assay [2], the “Selectivity CB1” value is 2.76 fold.
Regarding `C=C(C)[C@@H]1CCC(C)=C[C@H]1c1c(O)cc(CCCCC)c2c1OC(C)(C)OC2=O` [Compound 2d, 7-hydroxy-2,2-dimethyl-8-(3-methyl-6-(prop-1-en-2-yl)cyclohex-2-en-1-yl)-5-pentyl-4H-benzo[d][1,3]dioxin-4-one], the values for the half-inhibitory concentration (IC50) in assay [2] (setting [4]) and in assay [1] (setting [3]) were over 20 µM and 10 to 19.9 µM, respectively. Further, the “Selectivity CB2” value in assay [1] is given as 2.00 fold.
As to `C=C(C)C1CCC(C)=CC1c1c(O)cc(CCCCC)c2c1OC(c1ccccc1)OC2=O` (centres unmarked) [Compound 3d, 7-hydroxy-8-(3-methyl-6-(prop-1-en-2-yl)cyclohex-2-en-1-yl)-5-pentyl-2-phenyl-4H-benzo[d][1,3]dioxin-4-one], the concentration for half-maximal inhibition (IC50) was under 1 µM in assay [2] (setting [4]) and 1 to 9.9 µM in assay [1] (setting [3]). In addition, the “Selectivity CB1” value in assay [2] stood at 2.53 fold.
As to `C=C(C)C1CCC(C)=CC1c1c(O)cc(CCCCC)c2c1OC(C)(CC(C)=O)OC2=O` (centres unmarked) [Compound 7d, 7-hydroxy-2-methyl-8-(3-methyl-6-(prop-1-en-2-yl)cyclohex-2-en-1-yl)-2-(2-oxopropyl)-5-pentyl-4H-benzo[d][1,3]dioxin-4-one], the concentration for half-maximal inhibition (IC50) in assay [2] is over 20 µM; in assay [1] it was 1 to 9.9 µM. Besides, the “Selectivity CB2” value in assay [1] is 13.33 fold.
As to `CCCCCc1cc(O)c(C2C=C(C)CCC2)c2c1C(=O)OC1(CCCC1)O2` (centres unmarked) [Compound 9c, 7-hydroxy-8-(3-methylcyclohex-2-en-1-yl)-5-pentyl-spiro[1,3-benzodioxine-2,1′-cyclopentane]-4-one], the half-inhibitory concentration (IC50) in assay [2] lay in the range of 10 to 19.9 µM. In assay [1], the IC50 fell in the range of 1 to 9.9 µM and the “Selectivity CB2” value came to 3.32 fold.
In the same order, the values of `C=C(C)[C@@H]1CCC(C)=C[C@H]1c1c(O)cc(CCCCC)c2c1OC(C)(COC)OC2=O` (some centres unmarked) [Compound 11d, 7-hydroxy-2-(methoxymethyl)-2-methyl-8-(3-methyl-6-(prop-1-en-2-yl)cyclohex-2-en-1-yl)-5-pentyl-4H-benzo[d][1,3]dioxin-4-one] are over 20 µM, 10 to 19.9 µM and 1.89 fold.
For the compound `CCCCCc1cc(O)c(-c2cccc(C)c2)c2c1C(=O)OC(CC(C)=O)(c1ccccc1)O2` (centres unmarked) [Compound 12a, 2-acetonyl-7-hydroxy-8-(m-tolyl)-5-pentyl-2-phenyl-1,3-benzodioxin-4-one], the IC50 is over 20 µM in assay [2] and 10 to 19.9 µM in assay [1]. In addition, the “Selectivity CB2” value in assay [1] came out at 1.53 fold.
Turning to `CCCCCc1cc(O)c(C2C=C(C)CCC2)c2c1C(=O)OC(CC(C)=O)(c1ccccc1)O2` (centres unmarked) [Compound 12c, 7-hydroxy-8-(3-methylcyclohex-2-en-1-yl)-2-(2-oxopropyl)-5-pentyl-2-phenyl-4H-benzo[d][1,3]dioxin-4-one], the IC50 in assay [2] and in assay [1] was 1 to 9.9 µM in each case. For the same compound, the “Selectivity CB2” value in assay [1] came to 1.37 fold.
For the compound `C=C(C)[C@@H]1CCC(C)=C[C@H]1c1c(O)cc(CCCCC)c2c1OC(CC(C)=O)(c1ccccc1)OC2=O` (some centres unmarked) [Compound 12d, 7-hydroxy-8-(3-methyl-6-(prop-1-en-2-yl)cyclohex-2-en-1-yl)-2-(2-oxopropyl)-5-pentyl-2-phenyl-4H-benzo[d][1,3]dioxin-4-one], in assay [2], the 50% inhibitory concentration (IC50) fell in the range of 1 to 9.9 µM and the “Selectivity CB1” value is 1.00 fold. In assay [1], the IC50 was in the range of 1 to 9.9 µM and the “Selectivity CB2” value is recorded as 1.00 fold.
Turning to `CCCCCc1cc(O)c(C2C=C(C)CCC2)c2c1C(=O)OC(CC(C)=O)O2` (centres unmarked) [Compound 14c, 7-hydroxy-8-(3-methylcyclohex-2-en-1-yl)-2-(2-oxopropyl)-5-pentyl-4H-benzo[d][1,3]dioxin-4-one], the IC50 in assay [2] (setting [4]) and in assay [1] (setting [3]) was 1 to 9.9 µM in each case. In addition, the “Selectivity CB2” value in assay [1] amounted to 2.06 fold.
Consider `C=C(C)[C@@H]1CCC(C)=C[C@H]1c1c(O)cc(CCCCC)c2c1OC(CC(C)=O)OC2=O` (some centres unmarked) [Compound 14d, 7-hydroxy-8-(3-methyl-6-(prop-1-en-2-yl)cyclohex-2-en-1-yl)-2-(2-oxopropyl)-5-pentyl-4H-benzo[d][1,3]dioxin-4-one], for which the IC50 in assay [2] (setting [4]) fell in the range of 10 to 19.9 µM; in assay [1] (setting [3]), 1 to 9.9 µM. In assay [1], the “Selectivity CB2” value was determined as 4.92 fold.
Turning to `C=C(C)[C@@H]1CCC(C)=C[C@H]1c1c(O)cc(CCCCC)c2c1OC(C)OC2=O` (some centres unmarked) [Compound 16d, 7-hydroxy-2-methyl-8-(3-methyl-6-(prop-1-en-2-yl)cyclohex-2-en-1-yl)-5-pentyl-4H-benzo[d][1,3]dioxin-4-one], the half-maximal inhibitory concentration (IC50) in assay [2] and in assay [1] was 1 to 9.9 µM each time. The “Selectivity CB2” value in assay [1] is 2.44 fold.
Regarding `C=C(C)[C@@H]1CCC(C)=C[C@H]1c1c(O)cc(CCCCC)c2c1OC(CC)OC2=O` (some centres unmarked) [Compound 17d, 2-ethyl-7-hydroxy-8-(3-methyl-6-(prop-1-en-2-yl)cyclohex-2-en-1-yl)-5-pentyl-4H-benzo[d][1,3]dioxin-4-one], the IC50 in assay [2] (setting [4]) is 1 to 9.9 µM; in assay [1] (setting [3]), under 1 µM. In addition, in assay [1], the “Selectivity CB2” value was 4.35 fold.
For `C=C(C)[C@@H]1CCC(C)=C[C@H]1c1c(O)cc(CCC)c2c1OCOC2=O` [Compound 23d, 7-hydroxy-8-(3-methyl-6-(prop-1-en-2-yl)cyclohex-2-en-1-yl)-5-propyl-4H-benzo[d][1,3]dioxin-4-one], the half-inhibitory concentration (IC50) in assay [2] (setting [4]) and in assay [1] (setting [3]) was 1 to 9.9 µM in each case. Besides, the “Selectivity CB1” value in assay [2] stood at 1.00 fold. Also, the “Selectivity CB2” value in assay [1] was determined as 1.00 fold.
Regarding `C=C(C)[C@@H]1CCC(C)=C[C@H]1c1c(O)cc(CCC)c2c1OC(CC(C)=O)(c1ccccc1)OC2=O` (some centres unmarked) [Compound 24d, 7-hydroxy-8-(3-methyl-6-(prop-1-en-2-yl)cyclohex-2-en-1-yl)-2-(2-oxopropyl)-2-phenyl-5-propyl-4H-benzo[d][1,3]dioxin-4-one], in assay [2], the 50% inhibitory concentration (IC50) is 1 to 9.9 µM and the “Selectivity CB1” value is 1.00 fold. In assay [1], the 50% inhibitory concentration (IC50) is 1 to 9.9 µM and the “Selectivity CB2” value is on record as 1.00 fold.

Values taken from patent publication US20220242844A1, “CANNABINOID DERIVATIVES” (CANOPY GROWTH CORPORATION, priority 2019, published 2022).
